Source: US6200962A, “Thionophosphate derivatives, process for their preparation and pharmaceutical compositions containing them” (priority 1994, dated 2001)

Tests used:
[1] = Pro-oxidative effect: oxygen consumption with copper; details: for oxygen consumption: 10 mM, Cu2+ 10 mM, pH 7.2, 37 °C; for Rate of oxygen consumption: Table 1, 10 mM with Cu2+ 10 mM
Method: Oxygen consumption from solutions that contained AMTPs or other antioxidants such as cystine or ascorbic acid at 10 mM each, and copper sulfate 10 mM, was monitored by Biological Oxygen Monitor, model YSI 53.
AMTP molecules (10 mM) were incubated at pH=7.2 37° C. with Cu^2+ (10 mM). Oxygen consumption from the solution was measured with a Clark electrode (biological oxygen monitor). No oxygen consumption was observed from the solution. […] The oxygen consumption rate is referred to free radical production rate.

[2] = Lipid hydroperoxides in partially oxidized SUV liposomes; details: 5 mM
Method: SUV liposomes were prepared from egg lecitin at 10% lipid concentration in a 50 ml HEPES buffer pH=6.9 according to already published procedures [Lichtenberg, D. and Barenholz. Y. (1988) Methods of Biochemical Analysis 33:337-462].
Lipid hydroperoxides were monitored by a modified micromolar sensitive spectroscopic method [Siddiqi, A. M. and Tappel, A. L. (1955) Chemist Analyst 44:52]. 50λ of lipids (liposomes or emulsion) were dissolved in 1 ml ethanol. 50λ of 50% potassium iodide solution were then added and the mixture was incubated for half an hour in the dark. The developed color was read in a spectrophotometer at 400 nm.
SUV Liposomes (12.5 mM) with certain degrees of oxidation were incubated with 5 mM AMTP molecules for period of 24 h. Peroxidation number (PN) was measured with potassium iodide in ethanol. AMTPs were able to decompose lipid hvdroperoxide and to reduce the peroxidation number (PN).

[3] = Solubility in D-MEM medium; assay type: physicochemical; details: not soluble above this concentration
Human skin fibroblasts = experiment: Chromium release from fibroblasts, killing by streptolysin S and glucose oxidase; assay type: cell-based
Method: Human skin fibroblasts were kindly supplied by the Department for Human Genetics at Hadassa Hospital in Jerusalem. The cells were grown in D-MEM medium supplemented with glutamine, penicillin, and streptomycin and 10% fetal calf serum [Ginsburg, I. et al. (1992) Inflammation 16:519-538]. Radiolabeled cell monolayers were prepared by the addition of 10 μCi/ml of [^51 Cr]NaCrO4 (New England Nuclear) to […] of trypsinized cells grown in 75-ml tissue culture bottles. The cells were then dispensed into 24-well tissue culture plates (Nunc, Roskilde, Denmark) and grown to confluency in a CO2 incubator.
Hydrogen peroxide flux was generated by the addition of glucose oxidase (0.5 units/ml) to the tissue culture media. Streptolysin S (SLS) of Croup A Streptococci (17 hemolytic units/ml) was employed as a membrane damaging agent.
Culture monolayers were treated for 1 h with the agents listed above. The cultures were monitored periodically for changes in cell morphology. To assess cytotoxicity, the supernatant fluids were removed and centrifuged at 2000 rpm for 2 min. The solubilized radioactivity was then determined in a Contron gamma counter. The total radioactivity associated with untreated controls was solubilized by the addition of 1 ml of 1% Triton X-100. (AMTPs influence on SLS hemolytic activity and on glucose oxidase activity was also tested. No influences were observed).
Fibroblasts in culture were exposed to a synergistic killing mechanism (streptolysin S in combination with an oxidant glucose oxidase) in a D-MEM culture medium that contained 1 mg/ml of glucose (about 0.5-1 mM of H2 O2 was produced after 1 hour of incubation at 37° C.). This system caused about 60% chromium released within an hour. […] The positive controls were DMTU and catalase.

BSA [4] = experiment: BSA's cystine oxidation by NaOCl (DTNB); details: NaOCl 1 mM
Method: BSA (0.5 mg/ml) in Imi HEPES buffer pH=7.2(50 mM) was incubated with sodium hypochlorite (1 mM) for 15 min. The protein was dialyzed for 2 h against 2×500 vol of HEPES buffer to remove free sodium hypochlorite. 301 DTNB 0.015 M in water was then added to the protein solution and color was measured at 420 nm. AMTPs were added to the protein sample to protect it against sodium hypochlorite [Hazell and Stocker, ibid.].
(§1) BSA's tryptophan oxidation and BSA's cystine oxidation were the models for protein damage by NaOCl (FIG. 11 and FIG. 12 respectively). BSA fluorescence intensity decreased following oxidative stress of NaOCI (1 mM). […] Out of the three AMTP compounds the most lipophilic (A) was best in preventing the damage and provided 94% protection on the protein.

BSA [5] = experiment: BSA oxidation by NaOCl, fluorescence (tryptophan); details: NaOCl 1 mM
Method: BSA (0.5 mg/ml) in a 1 ml HEPES Buffer pH=7.2(50 mM) was incubated for 15 min with 1 mM sodium hypochlorite. Various concentrations of AMTP (compound B) were added to protect the protein. The sample was diluted in 3 ml of HEPES buffer and fluorescence was measured (lex =280 nm, lem =345 nm) in a JASCO FP-770 spectrotluorometer. Fluorescence decav was due to tryptophan and tyrosine oxidation. Alternatively, BAS (0.5 mg/ml) in HEPES buffer (1 ml) was incubated with 2,2'-azobis-(2-amidinopropane)-HCL (AAPH) (a water soluble peroxy radical initiator) (50 mM) at 37° C. for a period of 4 h. The sample was diluted with 2 ml of the buffer and fluorescence was measured [Hazell, L. and Stocker, R. (1993) Biochem. J. 290:165-172].
as §1

[6] = oil(mineral)/water and octanol/water partitioning; assay type: physicochemical; details: for logP: octanol/water, read-out: P (octanol/water) (converted); for P (oil/water): oil(mineral)/water
Excerpt: The basic chemical structure of the compounds of the invention includes the group --P--N=S, which resembles the thiourea --N--C=S core, in which the central carbon atom has been replaced by a phosphorus atom, to give --N--P=S, which is the characteristic functional group the novel compounds of the invention. This functional group is based on a primary amido thionophosphate (AMTP) chemical bond. The specific compounds shown in FIG. 1, which are only representative of the numerous possible compounds, differ in their oil(mineral) /water and octanol/water partitioning: […]

[7] = Hydroxyl radical deoxyribose assay
Method: A modification of the assay described by Halliwell et al. [Halliwell, B. et al. (1987) Analyt. Biochem. 165:215-219] was developed. 2-Deoxyribose was purchased form Sigma Chemical Co. All other chemicals for the assay were purchased from BDH Chemicals Ltd. Degradation of deoxy ribose was achieved bv a mixture of Fe^2+, EDTA, ascorbic acid and H2 O2. […] The reaction mixture was incubated for 1 h at 37° C. Scavenging of hydroxyl radical was done by various concentrations of AMTP (compound C), and color was developed by reaction with thiobarbituric acid as described [Halliwell, B. et al., ibid.]
A^-1 =A0^-1 {1+K[S]×(KDR [DR])^-1 } Equation 1
where A is the absorbance in the presence of a scavenger S (AMTPs) at a concentration [S] and A0 is the absorbance in the absence of a scavenger KDR =3.1*10^9 (reaction constant between deoxyribose and OH. radical) [Ebert, M., et al. (1965) Pulse Radiolysis, Academic Press, London] and [DR]=18 mM. […] Considering the fast reaction between H2 O2 and Fe^2+ --NTA and the slow reaction rate between AMTP and hydrogen peroxide as monitored in the ^31 P experiments (FIG. 5), the light decay may be exclusively attributed to hydroxyl radical scavenging.

[8] = literature; cited from earlier work

Compound: O=C1O[C@H]([C@@H](O)CO)C(O)=C1O [Ascorbic acid]
- oxygen consumption [1]: significant oxygen consumption
- Rate of oxygen consumption [1]: 2.87e-05 M/min

Compound: CCCCNP(=S)(OCC)OCC [Compound A, n-butylamido diethylthioiiophosphate]
- reduction of PN, comparative ([2]; after 24 h): more effective in reducing PN
- solubility [3]: ≤ 2000 µM
- inhibition at 2000 µM (Human skin fibroblasts; Homo sapiens, Skin fibroblast, 1 h, 2 mM, read-out: protection against cell killing): 10%
- protection of BSA's cystines (BSA [4]): strong protection
- protection of BSA fluorescence (BSA [5]): 94%
- logP [6]: 0.788
- P (oil/water) [6]: 4.82

Compound: CCOP(=S)(NCCC(=O)O)OCC [Compound C, 2-carboxyamidodiethyl thionophosphate]
- reduction of PN, comparative ([2]; first few hours of incubation): more efficient in the first few hours
- toxic effects on the cell (Human skin fibroblasts; concentrations of up to 20 mM, compound alone): did not show any toxic effects
- protection against cell killing (Human skin fibroblasts; concentrations up to 10 mM, 60 min): 50-60%
- logP [6]: -0.357
- P (oil/water) [6]: 0.39
- reaction rate constant with hydroxyl radicals ([7]; calculated from equation 1, 18 mM deoxyribose): 1.5×10^9 M^-1 S^-1
- hydroxyl radical scavenging ([7]; deoxyribose degradation): potent hydroxyl radical scavengers

Compound: CNC(=S)NC [DMTU, N,N'-dimethyl thiourea]
- toxicity [8]: considered a toxic compound

Compound: N[C@@H](CSSC[C@H](N)C(=O)O)C(=O)O [cystine]
- oxygen consumption [1]: significant oxygen consumption
- Rate of oxygen consumption [1]: 2.35e-06 M/min

Compound: NC(=S)Nc1cccc2ccccc12 [α-naphthyl-thiourea]
- LD50 [8]: about 10 mg/kg
